Laboratory results from ChEMBL document CHEMBL1201862, “PubChem BioAssay data set” (2004).
Activity calls are given as the source filed them.

Assays:
[1] = target: E3 ubiquitin-protein ligase Mdm2/Protein Mdm4 (Homo sapiens, UniProt O15151+Q00987); assay: disruption of Mdm2/MdmX protein binding – luminescence detection, dose response (AID 504593); type: functional
[2] = target: Aryl hydrocarbon receptor (Homo sapiens, UniProt P35869); assay: Luminescence-based cell-based high throughput dose response assay for activators of the Aryl Hydrocarbon Receptor (AHR). [Related pubchem assays: 2796 (Primary screen (AHR activators in singlicate)), 2845 (Confirmation screen (AHR activators in triplicate)), 434939 (Counterscreen (PXR activators in triplicate)), 2804 (Summary (AHR activators))]; type: ADME
Chain of Aryl hydrocarbon receptor (P35869 whole entry): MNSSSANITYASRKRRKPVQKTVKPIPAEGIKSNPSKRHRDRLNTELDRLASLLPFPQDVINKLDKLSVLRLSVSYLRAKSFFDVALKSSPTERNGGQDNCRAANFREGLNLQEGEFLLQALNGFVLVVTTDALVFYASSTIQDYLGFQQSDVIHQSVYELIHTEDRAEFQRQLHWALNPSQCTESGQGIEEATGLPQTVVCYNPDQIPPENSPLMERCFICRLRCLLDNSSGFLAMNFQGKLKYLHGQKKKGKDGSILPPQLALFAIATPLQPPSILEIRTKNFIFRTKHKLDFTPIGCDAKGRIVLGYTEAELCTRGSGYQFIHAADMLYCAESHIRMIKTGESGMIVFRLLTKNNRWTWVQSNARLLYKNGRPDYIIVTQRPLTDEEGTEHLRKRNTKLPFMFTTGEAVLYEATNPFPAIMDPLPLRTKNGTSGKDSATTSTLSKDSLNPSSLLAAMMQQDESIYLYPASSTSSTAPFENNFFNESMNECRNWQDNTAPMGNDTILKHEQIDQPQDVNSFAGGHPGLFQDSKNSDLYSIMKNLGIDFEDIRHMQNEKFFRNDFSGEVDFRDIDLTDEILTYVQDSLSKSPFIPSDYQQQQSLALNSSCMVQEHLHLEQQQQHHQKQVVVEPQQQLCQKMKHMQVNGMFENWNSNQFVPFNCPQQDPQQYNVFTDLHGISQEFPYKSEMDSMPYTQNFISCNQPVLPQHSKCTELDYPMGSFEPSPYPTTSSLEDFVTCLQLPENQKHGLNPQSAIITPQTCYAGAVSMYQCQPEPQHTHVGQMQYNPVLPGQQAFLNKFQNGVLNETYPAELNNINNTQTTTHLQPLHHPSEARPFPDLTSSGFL

HT-1080 = assay: HT1080 cell viability loss – fluorescence readout (AID 620); type: functional, cell-based; conditions: Homo sapiens
[3] = target: Luciferin 4-monooxygenase (Photinus pyralis, UniProt P08659); assay: Counter Screen for Luciferase-based Assay Positives. [Related pubchem assays: 620, 618, 411 ]
[4] = luciferase reporter signal suppression in cells – H4 neuroglioma cells, luminescence, dose response (AID 1990); type: functional, cell-based
[5] = alpha-synuclein stem-loop luciferase translation blockers – H4 neuroglioma cells, luminescence, confirmation (AID 1988); type: functional, cell-based
[6] = target: T1, Apoptotic protease-activating factor 1 (Homo sapiens, UniProt O14727); type: functional
T1 sequence (O14727 whole entry): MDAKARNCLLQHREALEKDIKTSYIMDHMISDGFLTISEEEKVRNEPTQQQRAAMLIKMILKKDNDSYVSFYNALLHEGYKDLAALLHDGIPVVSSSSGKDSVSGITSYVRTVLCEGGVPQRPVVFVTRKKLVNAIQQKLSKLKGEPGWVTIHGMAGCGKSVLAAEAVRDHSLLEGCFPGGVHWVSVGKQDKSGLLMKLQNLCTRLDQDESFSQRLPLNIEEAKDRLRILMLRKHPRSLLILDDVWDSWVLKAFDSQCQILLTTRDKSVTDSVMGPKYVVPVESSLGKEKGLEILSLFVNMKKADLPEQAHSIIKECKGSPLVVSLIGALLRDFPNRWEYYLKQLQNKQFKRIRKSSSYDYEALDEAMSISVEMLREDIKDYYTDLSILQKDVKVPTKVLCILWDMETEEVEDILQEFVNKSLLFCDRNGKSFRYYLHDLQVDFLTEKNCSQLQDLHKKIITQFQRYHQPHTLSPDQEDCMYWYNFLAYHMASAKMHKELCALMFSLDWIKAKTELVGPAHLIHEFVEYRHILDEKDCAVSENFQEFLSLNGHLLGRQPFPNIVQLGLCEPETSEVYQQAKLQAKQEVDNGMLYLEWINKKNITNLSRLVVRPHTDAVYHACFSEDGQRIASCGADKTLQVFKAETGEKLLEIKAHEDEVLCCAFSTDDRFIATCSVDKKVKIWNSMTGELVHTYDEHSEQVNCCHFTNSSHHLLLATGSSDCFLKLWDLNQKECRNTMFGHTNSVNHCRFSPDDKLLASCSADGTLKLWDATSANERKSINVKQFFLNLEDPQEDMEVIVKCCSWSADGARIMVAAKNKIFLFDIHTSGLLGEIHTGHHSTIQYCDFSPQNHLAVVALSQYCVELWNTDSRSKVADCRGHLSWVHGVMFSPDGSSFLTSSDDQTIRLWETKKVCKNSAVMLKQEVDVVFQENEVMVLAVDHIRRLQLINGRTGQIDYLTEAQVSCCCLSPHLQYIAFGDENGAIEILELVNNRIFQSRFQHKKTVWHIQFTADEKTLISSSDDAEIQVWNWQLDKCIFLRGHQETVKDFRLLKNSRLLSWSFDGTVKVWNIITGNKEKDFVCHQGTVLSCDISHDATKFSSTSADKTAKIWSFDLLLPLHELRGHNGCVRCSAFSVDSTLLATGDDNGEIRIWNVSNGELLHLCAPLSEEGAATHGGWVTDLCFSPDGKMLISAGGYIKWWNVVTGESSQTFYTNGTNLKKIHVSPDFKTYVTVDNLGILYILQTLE

[7] = Luminescence Cell-Based Dose Response HTS to Identify Inhibitors of 5'UTR Stem-Loop Driven Prion Protein mRNA Translation in H4 Neuroglioblastoma Cells. [Related pubchem assays: 1827 (Project Summary), 1813 (Primary HTS)]; type: functional
[8] = target: T2, Ubiquitin-conjugating enzyme E2 N (Homo sapiens, UniProt P61088); type: functional;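 note: Dose-response confirmation in a TR-FRET assay detecting UBC13-driven polyubiquitin chain formation, inhibition measured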
T2 sequence (P61088 whole entry): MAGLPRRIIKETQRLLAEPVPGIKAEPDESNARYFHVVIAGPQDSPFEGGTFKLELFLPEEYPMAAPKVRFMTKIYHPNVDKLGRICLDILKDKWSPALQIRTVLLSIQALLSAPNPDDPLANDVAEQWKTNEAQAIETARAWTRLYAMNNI

[9] = target: G-protein coupled receptor 55 (Homo sapiens, UniProt Q9Y2T6); assay: inhibition of LPI-stimulated GPR55 beta-arrestin translocation – imaging, U2OS, beta-arrestin-GFP, LPI agonist, primary screen (AID 2013); type: functional;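 note: antagonist potency measured as reduced agonist-driven arrestin aggregation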
Chain of G-protein coupled receptor 55 (Q9Y2T6 whole entry): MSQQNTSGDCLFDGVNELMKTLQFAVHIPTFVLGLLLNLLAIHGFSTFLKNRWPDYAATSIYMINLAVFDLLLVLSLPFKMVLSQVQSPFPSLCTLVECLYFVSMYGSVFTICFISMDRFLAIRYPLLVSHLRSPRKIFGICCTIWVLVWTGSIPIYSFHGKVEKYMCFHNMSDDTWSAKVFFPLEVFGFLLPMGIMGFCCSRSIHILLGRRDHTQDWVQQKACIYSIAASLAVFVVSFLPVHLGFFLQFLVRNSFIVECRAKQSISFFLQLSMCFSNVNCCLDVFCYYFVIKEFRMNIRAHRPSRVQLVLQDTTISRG

Prothrombin = Prothrombin (Bos taurus, UniProt P00735); assay: thrombin protease inhibitors – biochemical, fluorescence polarization, uHTS hits, dose response (AID 602369); type: functional
[10] = target: T3, Histone-lysine N-methyltransferase NSD2 (Homo sapiens, UniProt O96028); type: biochemical
T3 sequence (O96028 whole entry): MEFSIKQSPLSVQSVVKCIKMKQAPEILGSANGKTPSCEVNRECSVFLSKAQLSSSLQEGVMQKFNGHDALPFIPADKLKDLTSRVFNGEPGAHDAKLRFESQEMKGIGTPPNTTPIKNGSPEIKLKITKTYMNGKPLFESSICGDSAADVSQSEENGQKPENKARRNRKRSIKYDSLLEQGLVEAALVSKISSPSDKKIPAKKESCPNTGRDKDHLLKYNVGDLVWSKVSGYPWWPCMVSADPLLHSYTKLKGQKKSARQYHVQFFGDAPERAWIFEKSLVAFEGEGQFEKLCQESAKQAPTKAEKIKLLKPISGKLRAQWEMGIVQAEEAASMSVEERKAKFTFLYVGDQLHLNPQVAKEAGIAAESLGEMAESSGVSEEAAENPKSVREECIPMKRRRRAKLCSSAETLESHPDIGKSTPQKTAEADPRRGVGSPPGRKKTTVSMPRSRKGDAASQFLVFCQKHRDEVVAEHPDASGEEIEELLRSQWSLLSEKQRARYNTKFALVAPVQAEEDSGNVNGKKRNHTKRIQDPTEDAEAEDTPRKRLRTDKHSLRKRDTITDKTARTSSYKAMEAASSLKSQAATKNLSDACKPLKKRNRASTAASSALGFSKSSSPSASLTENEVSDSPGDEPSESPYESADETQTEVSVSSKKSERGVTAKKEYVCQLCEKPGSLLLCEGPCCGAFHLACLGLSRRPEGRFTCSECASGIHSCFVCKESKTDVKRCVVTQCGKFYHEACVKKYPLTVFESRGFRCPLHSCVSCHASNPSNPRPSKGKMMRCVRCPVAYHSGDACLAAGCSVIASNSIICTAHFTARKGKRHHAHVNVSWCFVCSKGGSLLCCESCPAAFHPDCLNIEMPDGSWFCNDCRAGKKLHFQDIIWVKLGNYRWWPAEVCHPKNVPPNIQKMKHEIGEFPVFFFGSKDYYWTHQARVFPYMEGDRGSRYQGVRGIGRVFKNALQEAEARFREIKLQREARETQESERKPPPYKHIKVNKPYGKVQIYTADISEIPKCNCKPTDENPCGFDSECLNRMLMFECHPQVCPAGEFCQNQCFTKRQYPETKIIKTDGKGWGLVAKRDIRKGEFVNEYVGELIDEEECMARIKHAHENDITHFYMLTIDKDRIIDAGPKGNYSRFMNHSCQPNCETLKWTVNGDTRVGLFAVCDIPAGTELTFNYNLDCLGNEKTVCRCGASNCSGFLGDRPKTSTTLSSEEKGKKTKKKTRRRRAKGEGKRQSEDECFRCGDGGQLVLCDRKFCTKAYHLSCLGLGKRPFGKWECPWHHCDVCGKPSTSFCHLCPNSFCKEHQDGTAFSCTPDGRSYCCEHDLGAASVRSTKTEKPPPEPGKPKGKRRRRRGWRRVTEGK

[11] = target: 72 kDa type IV collagenase (Homo sapiens, UniProt P08253); assay: Dose Response validation of uHTS RPN11 inhibitor hits using a MMP-2 Fluorescence assay.; type: functional
Chain of 72 kDa type IV collagenase (P08253 whole entry): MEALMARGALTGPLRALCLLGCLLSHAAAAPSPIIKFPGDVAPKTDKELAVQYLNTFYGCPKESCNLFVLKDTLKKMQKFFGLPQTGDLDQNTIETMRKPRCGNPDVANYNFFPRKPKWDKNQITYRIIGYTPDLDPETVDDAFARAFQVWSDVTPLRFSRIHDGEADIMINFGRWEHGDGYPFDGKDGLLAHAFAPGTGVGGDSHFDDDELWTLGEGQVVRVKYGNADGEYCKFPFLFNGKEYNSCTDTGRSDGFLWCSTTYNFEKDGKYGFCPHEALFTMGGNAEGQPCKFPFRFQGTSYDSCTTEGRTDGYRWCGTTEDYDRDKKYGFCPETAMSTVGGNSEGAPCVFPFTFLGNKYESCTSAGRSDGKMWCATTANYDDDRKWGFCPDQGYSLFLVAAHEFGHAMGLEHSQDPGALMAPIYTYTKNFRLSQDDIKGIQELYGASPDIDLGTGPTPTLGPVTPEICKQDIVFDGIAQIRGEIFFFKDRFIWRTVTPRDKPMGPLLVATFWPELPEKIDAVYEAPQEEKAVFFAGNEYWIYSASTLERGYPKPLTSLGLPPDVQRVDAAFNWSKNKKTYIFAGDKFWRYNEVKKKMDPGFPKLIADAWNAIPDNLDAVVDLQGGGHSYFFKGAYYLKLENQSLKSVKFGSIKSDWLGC

Cysteine protease ATG4B = target: T4, Cysteine protease ATG4B (Homo sapiens, UniProt Q9Y4P1); type: functional;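 note: Fluorescence-based dose-response confirmation assay measuring inhibition of ATG4B activity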
T4 sequence (Q9Y4P1 whole entry): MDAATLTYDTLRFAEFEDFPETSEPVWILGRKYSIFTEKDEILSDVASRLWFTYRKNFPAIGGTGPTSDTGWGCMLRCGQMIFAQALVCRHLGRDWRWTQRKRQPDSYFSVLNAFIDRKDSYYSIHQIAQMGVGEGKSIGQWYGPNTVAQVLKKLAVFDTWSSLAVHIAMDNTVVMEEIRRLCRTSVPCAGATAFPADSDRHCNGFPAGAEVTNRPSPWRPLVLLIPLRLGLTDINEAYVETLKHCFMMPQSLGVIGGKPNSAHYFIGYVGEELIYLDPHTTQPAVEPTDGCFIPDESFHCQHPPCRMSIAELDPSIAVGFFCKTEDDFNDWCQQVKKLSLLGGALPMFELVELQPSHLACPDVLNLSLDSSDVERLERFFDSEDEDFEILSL

Aminopeptidase N = target: T5, Aminopeptidase N (Plasmodium falciparum FcB1/Columbia, UniProt O96935); assay: malaria alanyl aminopeptidase activity blockers – biochemical, fluorogenic H-Leu-NHMec substrate, 1536-well (AID 1445); set-up: species or system Plasmodium falciparum 3D7, 3D7
T5 sequence (O96935 whole entry): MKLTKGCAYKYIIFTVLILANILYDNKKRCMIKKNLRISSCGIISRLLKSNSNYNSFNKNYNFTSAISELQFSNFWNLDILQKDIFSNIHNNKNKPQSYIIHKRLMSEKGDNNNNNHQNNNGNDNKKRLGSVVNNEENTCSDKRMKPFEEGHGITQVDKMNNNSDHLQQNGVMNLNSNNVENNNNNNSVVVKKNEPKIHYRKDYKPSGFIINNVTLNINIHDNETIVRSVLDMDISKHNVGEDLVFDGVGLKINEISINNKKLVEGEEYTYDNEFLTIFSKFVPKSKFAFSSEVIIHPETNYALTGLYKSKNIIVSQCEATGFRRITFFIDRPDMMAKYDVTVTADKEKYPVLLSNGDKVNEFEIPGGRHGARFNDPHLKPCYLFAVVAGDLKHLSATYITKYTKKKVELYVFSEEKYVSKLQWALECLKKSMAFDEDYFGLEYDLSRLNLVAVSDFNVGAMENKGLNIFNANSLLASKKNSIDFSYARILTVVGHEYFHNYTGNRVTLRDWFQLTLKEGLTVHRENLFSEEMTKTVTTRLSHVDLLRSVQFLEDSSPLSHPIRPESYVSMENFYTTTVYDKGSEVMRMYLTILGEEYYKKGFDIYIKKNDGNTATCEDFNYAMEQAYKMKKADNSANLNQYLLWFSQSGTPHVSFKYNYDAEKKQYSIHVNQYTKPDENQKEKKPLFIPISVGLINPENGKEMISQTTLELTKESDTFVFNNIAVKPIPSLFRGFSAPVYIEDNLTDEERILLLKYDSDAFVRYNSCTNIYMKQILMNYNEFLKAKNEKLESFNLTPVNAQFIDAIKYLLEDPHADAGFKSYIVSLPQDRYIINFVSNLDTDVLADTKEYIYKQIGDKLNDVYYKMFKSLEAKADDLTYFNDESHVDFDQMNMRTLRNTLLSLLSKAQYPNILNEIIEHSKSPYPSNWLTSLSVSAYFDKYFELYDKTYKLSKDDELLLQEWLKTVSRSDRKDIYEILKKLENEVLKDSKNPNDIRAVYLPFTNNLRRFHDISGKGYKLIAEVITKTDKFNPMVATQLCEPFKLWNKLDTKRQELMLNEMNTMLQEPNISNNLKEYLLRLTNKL

Phospholipase A2 = Phospholipase A2 (Homo sapiens, UniProt P04054); type: functional;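 note: confirmatory dose-response counterscreen on phospholipase A2, testing hits that came from an ultra-high-throughput screen for ATG4B inhibitors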
[12] = target: T6, Voltage-gated N-type calcium channel alpha-1B subunit/Amyloid beta A4 precursor protein-binding family A member 1 (Homo sapiens, UniProt Q00975+Q02410); type: protein assay
T6 sequence (Q00975 whole entry): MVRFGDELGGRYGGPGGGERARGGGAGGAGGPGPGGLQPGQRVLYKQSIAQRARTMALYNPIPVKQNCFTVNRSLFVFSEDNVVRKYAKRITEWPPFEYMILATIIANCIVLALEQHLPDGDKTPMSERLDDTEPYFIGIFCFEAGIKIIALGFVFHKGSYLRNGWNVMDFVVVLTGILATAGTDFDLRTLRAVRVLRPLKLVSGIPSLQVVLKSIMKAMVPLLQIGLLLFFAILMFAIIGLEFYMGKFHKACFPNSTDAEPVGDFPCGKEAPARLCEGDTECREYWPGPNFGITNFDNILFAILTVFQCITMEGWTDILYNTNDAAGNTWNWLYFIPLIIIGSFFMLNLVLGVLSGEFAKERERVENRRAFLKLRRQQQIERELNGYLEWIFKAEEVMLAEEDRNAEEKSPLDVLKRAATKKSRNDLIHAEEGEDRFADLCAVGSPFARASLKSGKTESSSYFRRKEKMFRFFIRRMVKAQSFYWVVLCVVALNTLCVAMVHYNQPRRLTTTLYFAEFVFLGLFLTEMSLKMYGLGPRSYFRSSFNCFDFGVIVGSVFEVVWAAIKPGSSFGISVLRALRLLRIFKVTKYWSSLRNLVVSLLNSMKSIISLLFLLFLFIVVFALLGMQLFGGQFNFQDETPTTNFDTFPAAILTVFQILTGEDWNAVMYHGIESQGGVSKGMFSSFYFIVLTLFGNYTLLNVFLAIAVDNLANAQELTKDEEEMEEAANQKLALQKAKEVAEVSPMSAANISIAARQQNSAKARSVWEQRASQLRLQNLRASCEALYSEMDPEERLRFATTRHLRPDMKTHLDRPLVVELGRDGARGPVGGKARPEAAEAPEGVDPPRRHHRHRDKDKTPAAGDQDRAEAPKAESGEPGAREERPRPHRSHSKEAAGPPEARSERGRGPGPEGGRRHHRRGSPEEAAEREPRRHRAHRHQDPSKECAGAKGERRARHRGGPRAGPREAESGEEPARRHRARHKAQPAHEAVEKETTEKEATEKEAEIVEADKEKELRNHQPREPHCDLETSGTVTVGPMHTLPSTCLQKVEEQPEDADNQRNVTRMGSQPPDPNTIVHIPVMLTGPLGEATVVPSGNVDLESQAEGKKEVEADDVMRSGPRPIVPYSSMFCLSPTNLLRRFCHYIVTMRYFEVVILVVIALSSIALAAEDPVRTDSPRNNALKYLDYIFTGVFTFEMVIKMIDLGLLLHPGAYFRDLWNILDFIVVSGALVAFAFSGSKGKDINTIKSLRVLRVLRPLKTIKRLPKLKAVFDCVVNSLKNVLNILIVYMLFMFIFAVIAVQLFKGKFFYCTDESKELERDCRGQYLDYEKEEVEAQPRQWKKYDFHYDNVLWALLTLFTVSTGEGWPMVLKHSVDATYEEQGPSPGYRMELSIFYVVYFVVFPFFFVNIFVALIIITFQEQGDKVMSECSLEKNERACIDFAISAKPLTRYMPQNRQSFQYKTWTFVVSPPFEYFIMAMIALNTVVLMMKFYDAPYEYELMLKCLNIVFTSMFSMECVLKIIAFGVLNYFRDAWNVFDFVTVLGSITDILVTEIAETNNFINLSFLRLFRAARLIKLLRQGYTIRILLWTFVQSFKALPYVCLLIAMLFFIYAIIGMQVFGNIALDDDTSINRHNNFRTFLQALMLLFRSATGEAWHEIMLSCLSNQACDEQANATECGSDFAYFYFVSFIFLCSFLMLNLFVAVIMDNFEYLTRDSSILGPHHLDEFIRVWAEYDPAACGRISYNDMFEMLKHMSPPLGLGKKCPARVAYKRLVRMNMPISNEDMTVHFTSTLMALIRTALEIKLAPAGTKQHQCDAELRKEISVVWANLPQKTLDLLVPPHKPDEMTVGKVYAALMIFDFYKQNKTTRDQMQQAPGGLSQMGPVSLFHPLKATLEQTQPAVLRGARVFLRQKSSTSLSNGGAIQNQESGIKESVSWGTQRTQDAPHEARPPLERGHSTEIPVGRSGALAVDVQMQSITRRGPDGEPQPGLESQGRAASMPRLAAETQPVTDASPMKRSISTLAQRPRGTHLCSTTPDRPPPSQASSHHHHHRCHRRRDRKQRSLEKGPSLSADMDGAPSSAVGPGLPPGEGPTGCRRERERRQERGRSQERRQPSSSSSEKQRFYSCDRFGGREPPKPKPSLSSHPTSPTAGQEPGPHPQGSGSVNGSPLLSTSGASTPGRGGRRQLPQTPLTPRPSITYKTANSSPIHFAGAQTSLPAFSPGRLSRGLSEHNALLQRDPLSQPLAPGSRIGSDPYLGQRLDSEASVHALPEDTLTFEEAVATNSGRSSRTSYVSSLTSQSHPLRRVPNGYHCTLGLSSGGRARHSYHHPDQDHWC
T6 sequence (Q02410 whole entry): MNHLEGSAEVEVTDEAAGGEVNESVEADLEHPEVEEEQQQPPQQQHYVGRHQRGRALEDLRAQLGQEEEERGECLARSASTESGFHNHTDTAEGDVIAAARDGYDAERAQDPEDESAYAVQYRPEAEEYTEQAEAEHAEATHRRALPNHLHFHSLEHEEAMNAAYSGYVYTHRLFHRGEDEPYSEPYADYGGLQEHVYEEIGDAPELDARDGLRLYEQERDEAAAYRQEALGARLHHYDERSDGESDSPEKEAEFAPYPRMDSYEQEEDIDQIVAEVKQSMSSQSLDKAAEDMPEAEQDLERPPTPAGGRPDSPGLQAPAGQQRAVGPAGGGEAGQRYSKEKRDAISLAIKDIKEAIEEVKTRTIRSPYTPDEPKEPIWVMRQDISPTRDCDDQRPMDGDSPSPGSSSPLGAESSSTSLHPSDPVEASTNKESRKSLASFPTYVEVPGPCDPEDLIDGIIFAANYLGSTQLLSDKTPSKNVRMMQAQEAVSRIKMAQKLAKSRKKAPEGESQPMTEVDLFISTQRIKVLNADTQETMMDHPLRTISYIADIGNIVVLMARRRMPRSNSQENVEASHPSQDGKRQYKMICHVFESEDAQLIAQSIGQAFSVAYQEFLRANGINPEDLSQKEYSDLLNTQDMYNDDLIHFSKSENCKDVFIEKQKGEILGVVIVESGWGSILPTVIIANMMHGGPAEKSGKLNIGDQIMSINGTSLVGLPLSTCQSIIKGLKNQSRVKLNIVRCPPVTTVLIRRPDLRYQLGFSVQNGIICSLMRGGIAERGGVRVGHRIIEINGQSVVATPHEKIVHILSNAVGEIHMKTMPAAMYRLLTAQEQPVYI

[13] = target: 26S proteasome non-ATPase regulatory subunit 14 (Homo sapiens, UniProt O00487); assay: inhibition of proteasome subunit RPN11 – biochemical, fluorescence polarization, uHTS hits, confirmation (AID 602368); type: functional
[14] = target: T6, Voltage-gated N-type calcium channel alpha-1B subunit/Amyloid beta A4 precursor protein-binding family A member 1; type: protein assay; remark: listed apart in the source

Q: Which results are given for `Cc1nc(NC2=NCN(CCCN3CCOCC3)CN2)nc2c(C)cccc12`?
A: IC50 [1]: 3.92 µM (active); EC50 [2]: 12.1 µM (not active); EC50 (HT-1080): 51.5 µM (not active); EC50 [3]: 3.36 µM (active)

Q: What does the source list for `CN1Cc2c(N3CCOCC3)nc3sc(C(=O)c4ccc(Br)cc4)c(N)c3c2CC1(C)C`?
A: EC50 [4]: 10.4 µM (active); EC50 [5]: 8.58 µM (active); IC50 [6]: 15.8 µM (active); EC50 [7]: 11.6 µM (active); IC50 [8]: > 20 µM (inactive); IC50 [9]: 3.9 µM (active)

Q: Which IC50 (Prothrombin) does the source give for `CCc1ccc(-n2cccc2/C=C2/C(=N)N3C(=NC2=O)SN=C3S(C)(=O)=O)cc1` here?
A: Its IC50 is 45.8 µM (active).

Q: And the AC50 [10]?
A: The AC50 was 11.5 µM (active).

Q: And the IC50 [11]?
A: The IC50 was 30.9 µM (active).

Q: What about the IC50 (Cysteine protease ATG4B) of the same molecule?
A: The IC50 was 11.2 µM (active).

Q: And the IC50 (Aminopeptidase N)?
A: Its IC50 is 34.4 µM (active).

Q: And the IC50 (Phospholipase A2)?
A: The IC50 was 12 µM (active).

Q: And the IC50 [12]?
A: The IC50 was 7.3 µM (active).

Q: What about the IC50 [13] of the same molecule?
A: The IC50 was 21.8 µM (active).

Q: And the IC50 [14]?
A: The IC50 was > 50 µM (inactive).
